# Target: T1, CFTR in F508del/MF-HBE cells (Homo sapiens, UniProt P13569, DEL508-508)
# T1 construct: human bronchial epithelial (HBE) cells derived from CF subjects heterozygous for F508del and a minimal function CFTR mutation; endogenous in cells; host or cells: primary human bronchial epithelial cells from CF subjects (F508del/MF-HBE)
# Experiment: Ussing chamber assay of CFTR-mediated short-circuit currents (identification of potentiator compounds)
# Type: cell-based
# Settings: potentiator incubated 18-24 hours at 37° C. in combination with 10 μM corrector, in the presence of 20% human serum, CFTR-mediated ISC
# Experimental: Ussing chamber experiments were performed using human bronchial epithelial (HBE) cells derived from CF subjects heterozygous for F508del and a minimal function CFTR mutation (F508del/MF-HBE) and cultured as previously described (Neuberger T, Burton B, Clark H, Van Goor F; Methods Mol. Biol. 2011:741:39-54). After four days the apical media was removed, and the cells were grown at an air liquid interface for >14 days prior to use.
# To isolate the CFTR-mediated short-circuit (ISC) current, F508del/MF-HBE grown on Costar® Snapwell™ cell culture inserts were mounted in an Ussing chamber and the transepithelial ISC was measured under voltage-clamp recording conditions (Vhold=0 mV) at 37° C. The basolateral solution contained (in mM) 145 NaCl, 0.83 K2HPO4, 3.3 KH2PO4, 1.2 MgCl2, 1.2 CaCl2), 10 Glucose, 10 HEPES (pH adjusted to 7.4 with NaOH) and the apical solution contained (in mM) 145 NaGluconate, 1.2 MgCl2, 1.2 CaCl2), 10 glucose, 10 HEPES (pH adjusted to 7.4 with NaOH) and 30 μM amiloride to block the epithelial sodium channel. Forskolin (20 μM) was added to the apical surface to activate CFTR, followed by apical addition of a CFTR inhibitor cocktail consisting of BPO, GlyH-101 and CFTR inhibitor 172 (each at 20 μM final assay concentration) to specifically isolate CFTR currents. The CFTR-mediated ISC (μA/cm^2) for each condition was determined from the peak forskolin response to the steady-state current following inhibition.
# The activity of the CFTR potentiator compounds on the CFTR-mediated ISC was determined in Ussing chamber studies as described above. The F508del/MF-HBE cell cultures were incubated with the potentiator compounds at a range of concentrations in combination with 10 μM (14S)-8-[3-(2-{dispiro[2.0.2.1]heptan-7-yl}ethoxy)-1H-pyrazol-1-yl]-12,12-dimethyl-2λ^6-thia-3,9,11,18,23-pentaazatetracyclo[17.3.1.111,14.05,10]tetracosa-1(22),5,7,9,19(23),20-hexaene-2,2,4-trione for 18-24 hours at 37° C. and in the presence of 20% human serum. The concentration of potentiator compounds and (14S)-8-[3-(2-{dispiro[2.0.2.1]heptan-7-yl}ethoxy)-1H-pyrazol-1-yl]-12,12-dimethyl-2λ^6-thia-3,9,11,18,23-pentaazatetracyclo[17.3.1.111,14.05,10]tetracosa-1(22),5,7,9,19(23),20-hexaene-2,2,4-trione used during the 18-24 hours incubations was kept constant throughout the Ussing chamber measurement of the CFTR-mediated ISC to ensure compounds were present throughout the entire experiment. The efficacy and potency of the putative F508del potentiators was compared to that of the known potentiator, ivacaftor (N-[2,4-bis(1,1-dimethylethyl)-5-hydroxyphenyl]-1,4-dihydro-4-oxoquinoline-3-carboxamide).
# T1 sequence (P13569 with tags, fused parts or gaps DEL508-508): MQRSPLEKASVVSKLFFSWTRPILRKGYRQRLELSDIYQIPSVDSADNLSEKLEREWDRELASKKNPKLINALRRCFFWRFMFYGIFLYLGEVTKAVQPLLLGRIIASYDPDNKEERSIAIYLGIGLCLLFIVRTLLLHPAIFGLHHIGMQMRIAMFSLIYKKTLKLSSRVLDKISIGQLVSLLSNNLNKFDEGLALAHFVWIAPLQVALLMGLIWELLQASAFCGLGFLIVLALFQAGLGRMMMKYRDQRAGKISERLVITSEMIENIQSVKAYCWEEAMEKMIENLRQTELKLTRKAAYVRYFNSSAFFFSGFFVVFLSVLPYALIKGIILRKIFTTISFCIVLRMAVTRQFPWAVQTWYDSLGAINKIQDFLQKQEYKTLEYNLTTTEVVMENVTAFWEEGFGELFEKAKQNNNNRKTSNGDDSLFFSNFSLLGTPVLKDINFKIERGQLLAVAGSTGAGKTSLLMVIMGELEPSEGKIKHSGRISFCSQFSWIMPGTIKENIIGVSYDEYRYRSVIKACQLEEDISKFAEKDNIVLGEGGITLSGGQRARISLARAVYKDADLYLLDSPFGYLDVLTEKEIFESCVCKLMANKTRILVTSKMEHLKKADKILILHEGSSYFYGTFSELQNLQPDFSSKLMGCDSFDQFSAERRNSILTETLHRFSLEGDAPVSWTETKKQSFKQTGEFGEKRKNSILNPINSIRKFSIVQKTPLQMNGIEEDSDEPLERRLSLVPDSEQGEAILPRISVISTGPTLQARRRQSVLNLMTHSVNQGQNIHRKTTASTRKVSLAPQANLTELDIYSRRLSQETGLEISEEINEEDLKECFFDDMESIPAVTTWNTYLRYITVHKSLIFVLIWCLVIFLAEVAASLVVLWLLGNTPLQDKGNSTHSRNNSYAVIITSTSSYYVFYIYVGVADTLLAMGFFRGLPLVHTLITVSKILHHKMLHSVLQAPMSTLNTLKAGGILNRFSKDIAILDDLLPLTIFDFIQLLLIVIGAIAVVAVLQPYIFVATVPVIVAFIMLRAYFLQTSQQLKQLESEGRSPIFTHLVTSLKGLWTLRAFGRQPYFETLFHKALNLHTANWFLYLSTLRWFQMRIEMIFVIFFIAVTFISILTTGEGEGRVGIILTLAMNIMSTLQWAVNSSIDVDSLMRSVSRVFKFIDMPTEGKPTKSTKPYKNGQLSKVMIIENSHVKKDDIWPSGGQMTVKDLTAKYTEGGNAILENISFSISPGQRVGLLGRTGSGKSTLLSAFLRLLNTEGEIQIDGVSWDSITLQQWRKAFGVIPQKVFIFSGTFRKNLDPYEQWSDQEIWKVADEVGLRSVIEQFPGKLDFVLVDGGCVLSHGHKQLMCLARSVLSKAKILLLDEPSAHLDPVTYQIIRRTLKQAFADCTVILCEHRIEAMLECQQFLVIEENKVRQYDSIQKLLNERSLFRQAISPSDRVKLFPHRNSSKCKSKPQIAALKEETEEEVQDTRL
row,Structure (SMILES),EC50 [nM]
1,"N#CC1CCCCc2ccc(F)c(c2)C(O)(C(F)(F)F)C2=NN=C(O2)c2nc1c(C(F)(F)F)cc2N (single isomer, unassigned) [Compound 67, 20-amino-8-fluoro-6-hydroxy-6,18-bis(trifluoromethyl)-23-oxa-3,4,21-triazatetracyclo[15.3.1.12,5.17,11]tricosa-1(21),2,4,7,9,11(22),17,19-octaene-16-carbonitrile]",< 500
2,"N#CC1CCCCc2ccc(F)c(c2)C(O)(C(F)(F)F)C2=NN=C(O2)c2nc1c(C(F)(F)F)cc2N (single isomer, unassigned) [Compound 68, 20-amino-8-fluoro-6-hydroxy-6,18-bis(trifluoromethyl)-23-oxa-3,4,21-triazatetracyclo[15.3.1.12,5.17,11]tricosa-1(21),2,4,7,9,11(22),17,19-octaene-16-carbonitrile]",< 500
3,"Nc1cc(C(F)(F)F)c2nc1-c1nnc(o1)C(F)(C(F)(F)F)CCCCCCC2=O (single isomer, unassigned) [Compound 71, 17-amino-6-fluoro-6,15-bis(trifluoromethyl)-19-oxa-3,4,18-triazatricyclo[12.3.1.12,5]nonadeca-1(18),2,4,14,16-pentaen-13-one]",> 1000
4,"CN1CCCCCC(O)(C(F)(F)F)C2=NN=C(O2)c2nc(c(C(F)(F)F)cc2N)C1=O (single isomer, unassigned) [Compound 72, 17-Amino-6-hydroxy-12-methyl-6,15-bis(trifluoromethyl)-19-oxa-3,4,12,18-tetrazatricyclo[12.3.1.12,5]nonadeca-1(18),2,4,14,16-pentaen-13-one]",< 500
5,"CN1CCCCCC(O)(C(F)(F)F)C2=NN=C(O2)c2nc(c(C(F)(F)F)cc2N)C1=O (single isomer, unassigned) [Compound 73, 17-amino-6-hydroxy-12-methyl-6,15-bis(trifluoromethyl)-19-oxa-3,4,12,18-tetrazatricyclo[12.3.1.12,5]nonadeca-1(18),2,4,14,16-pentaen-13-one]",> 1000
6,"Nc1cc(C(F)(F)F)c2nc1-c1nnc(o1)C(O)(C(F)(F)F)CCCCCN(Cc1ccccc1)C2=O (single isomer, unassigned) [Compound 74, 17-Amino-12-benzyl-6-hydroxy-6,15-bis (trifluoromethyl)-19-oxa-3,4,12,18-tetrazatricyclo [12.3.1.12,5] nonadeca-1(18),2,4,14,1 6-pentaen-13-one]",< 500
7,"Nc1cc(C(F)(F)F)c2nc1-c1nnc(o1)C(O)(C(F)(F)F)CCCCCN(C1CCC1)C2=O (single isomer, unassigned) [Compound 78, 17-Amino-12-cyclobutyl-6-hydroxy-6,15-bis (trifluoromethyl)-19-oxa-3,4,12,18-tetrazatricyclo [12.3.1.12,5] nonadeca-1(18),2,4,14,1 6-pentaen-13-one]",< 500
8,"CC1(C)CCC2CCCC[C@](O)(C(F)(F)F)C3=NN=C(O3)c3nc(c(C(F)(F)F)cc3N)C(=O)N21 (single isomer, unassigned) [Compound 114]",< 500
9,"CC1(C)CCC2CCCC[C@](O)(C(F)(F)F)C3=NN=C(O3)c3nc(c(C(F)(F)F)cc3N)C(=O)N21 (single isomer, unassigned) [Compound 115]",< 500
10,"N#Cc1cc(N)c2nc1C(=O)N(C1CC(F)(F)C1)CCCCCC(O)(C(F)(F)F)C1=NN=C2O1 (single isomer, unassigned) [Compound 197, 17-amino-12-(3,3-difluorocyclobutyl)-6-hydroxy-13-oxo-6-(trifluoromethyl)-19-oxa-3,4,12,18-tetrazatricyclo[12.3.1.12,5]nonadeca-1(18),2,4,14,16-pentaene-15-carbonitrile]",> 1000
11,"Nc1cc(C(F)(F)F)c2nc1-c1nnc(o1)C(O)(C(F)(F)F)CCCCN(C1CC(F)(F)C1)C2=O (single isomer, unassigned) [Compound 198, 16-amino-11-(3,3-difluorocyclobutyl)-6-hydroxy-6,14-bis(trifluoromethyl)-18-oxa-3,4,11,17-tetrazatricyclo[11.3.1.12,5]octadeca-1(17),2,4,13,15-pentaen-12-one]",< 500
12,"Nc1cc(C(F)(F)F)c2nc1-c1nnc(o1)C(O)(C(F)(F)F)CCCCN(C1CC(F)(F)C1)C2=O (single isomer, unassigned) [Compound 199, 16-amino-11-(3,3-difluorocyclobutyl)-6-hydroxy-6,14-bis(trifluoromethyl)-18-oxa-3,4,11,17-tetrazatricyclo[11.3.1.12,5]octadeca-1(17),2,4,13,15-pentaen-12-one]",> 1000
13,"Nc1cc(C(F)(F)F)c2nc1-c1nnc(o1)C(O)(C(F)(F)F)c1cc(ccc1F)CCCN(C1CC(F)(F)C1)C2=O (single isomer, unassigned) [Compound 202, 20-amino-15-(3,3-difluorocyclobutyl)-8-fluoro-6-hydroxy-6,18-bis(trifluoromethyl)-23-oxa-3,4,15,21-tetraazatetracyclo [15.3.1.12,5.17,11] tricosa 1(21),2,4,7(22),8,10, 17,19-octaen-16-one]",< 500
14,"Nc1cc(C(F)(F)F)c2nc1-c1nnc(o1)C(O)(C(F)(F)F)c1cc(ccc1F)CCCN(C1CC(F)(F)C1)C2=O (single isomer, unassigned) [Compound 203, 20-amino-15-(3,3-difluorocyclobutyl)-8-fluoro-6-hydroxy-6,18-bis(trifluoromethyl)-23-oxa-3,4,15,21-tetraazatetracyclo [15.3.1.12,5.17,11] tricosa 1(21),2,4,7(22),8,10, 17,19-octaen-16-one]",< 500
15,"CC(C)N1CCCCCC(O)(C(F)(F)F)C2=NN=C(O2)c2nc(c(C(F)(F)F)cc2N)C1=O (single isomer, unassigned) [Compound 204, 17-amino-6-hydroxy-12-isopropyl-6,15-bis(trifluoromethyl)-19-oxa-3,4,12,18-tetrazatricyclo [12.3.1.12,5] nonadeca-1(18),2,4,14,16-pentaen-13-one]",< 500
16,"CC(C)N1CCCCCC(O)(C(F)(F)F)C2=NN=C(O2)c2nc(c(C(F)(F)F)cc2N)C1=O (single isomer, unassigned) [Compound 205, 17-amino-6-hydroxy-12-isopropyl-6,15-bis(trifluoromethyl)-19-oxa-3,4,12,18-tetrazatricyclo [12.3.1.12,5] nonadeca-1(18),2,4,14,16-pentaen-13-one]",> 1000
17,"Nc1cc(C(F)(F)F)c2nc1-c1nnc(o1)C(O)(C(F)(F)F)CCCCCN(CC(F)(F)F)C2=O (single isomer, unassigned) [Compound 206, 17-amino-6-hydroxy-12-(2,2,2-trifluoroethyl)-6,15-bis(trifluoromethyl)-19-oxa-3,4,12,18-tetrazatricyclo [12.3.1.12,5] nonadeca-1(18),2,4,14,16-pentaen-13-one]",< 500
18,"Nc1cc(C(F)(F)F)c2nc1-c1nnc(o1)C(O)(C(F)(F)F)CCCCCN(CC(F)(F)F)C2=O (single isomer, unassigned) [Compound 207, 17-amino-6-hydroxy-12-(2,2,2-trifluoroethyl)-6,15-bis(trifluoromethyl)-19-oxa-3,4,12,18-tetrazatricyclo [12.3.1.12,5] nonadeca-1(18),2,4,14,16-pentaen-13-one]",> 1000
19,"CC(C)(C)c1ccc(C2(N3CCCCCC(O)(C(F)(F)F)C4=NN=C(O4)c4nc(c(C(F)(F)F)cc4N)C3=O)CC2)cc1 (single isomer, unassigned) [Compound 227, 17-amino-12-[1-(4-tert-butylphenyl)cyclo-propyl]-6-hydroxy-6,15-bis(trifluoromethyl)-19-oxa-3,4,12,18-tetrazatricyclo [12.3.1.12,5] nonadeca-1(18),2,4,14,16-pentaen-13-one]",< 500
20,"CC(C)(C)c1ccc(C2(N3CCCCCC(O)(C(F)(F)F)C4=NN=C(O4)c4nc(c(C(F)(F)F)cc4N)C3=O)CC2)cc1 (single isomer, unassigned) [Compound 228, 17-amino-12-[1-(4-tert-butylphenyl)cyclo-propyl]-6-hydroxy-6,15-bis(trifluoromethyl)-19-oxa-3,4,12,18-tetrazatricyclo [12.3.1.12,5] nonadeca-1(18),2,4,14,16-pentaen-13-one]",< 500

# Source: patent US20250122218A1, “MODULATORS OF CYSTIC FIBROSIS TRANSMEMBRANE CONDUCTANCE REGULATOR” (Vertex Pharmaceuticals Incorporated, priority 2022, published 2025)
